Source: patent US20080279923A1, “Use of Microtubule Stabilizing Compounds for the Treatment of Lesions of Cns Axons” (Max-Planck-Gesellschaft zur Forderung de Wissensch, priority 2005, published 2008)
Values joined by “and” are separate entries in the source; they are usually repeats but may differ in a detail not shown here. Identical values can stand only once.

Key:
[1] = i.v. in mice; cited from earlier work
rat hippocampal neurons [2] = test: Microtubule stability assay: Nocodazole-induced microtubule retraction in hippocampal neurons; assay type: cell-based; details: for cells in which microtubule retraction was significantly higher in minor neurites compared to axons: stage 3 neurons, 5 min
Method: (§1) Primary hippocampal neurons derived from rat embryos were cultured following the protocol of Goslin and Banker (1991) and de Hoop et al. (1997). In brief, the hippocampi of E18 rats were dissected, trypsinized, and physically dissociated. The cells were then washed in HBSS, and 1.0-1.3×10^5 cells were plated onto poly-lysine-treated glass coverslips in 6 cm petri dishes containing minimal essential medium (MEM) and 10% heat-inactivated horse serum. The cells were kept in 5% CO2 at 36.5° C. After 12-18 hr, the coverslips were transferred to a 6 cm dish containing astrocytes in MEM and N2 supplements.
Analyzing short term microtubule depolymerization, the fate of individual neurons was followed. Cells localized on the grid of a Cellocate coverslip were photographed. The coverslip was then transferred into HEPES-buffered HBSS containing Nocodazole and incubated for 5 min at 36.5° C. in the incubator. [As Nocodazole is insoluble in aqueous solutions, special care was taken to ensure equal distribution of Nocodazole in HBSS.] After short term incubation, neurons were PHEM-fixed to eliminate depolymerized tubulin subunits and allow clear visualization of microtubules.
To visualize microtubules clearly, an alternative fixation method (PHEM-fixation) was used if required. To get rid of unpolymerized tubulin subunits, cells were simultaneously fixed and permeabilized for 15 min at 37° C. in PHEM buffer (60 mM PIPES and 25 mM HEPES) containing 3.7% paraformaldehyde, 0.25% glutaraldehyde, 5 mM EGTA, 1 mM MgCl, 3.7% sucrose, and 0.1% Triton X-100 (adapted from Smith, 1994) and quenched as above.
To determine the ratio of acetylated to tyrosinated α-Tubulin, the fluorescence signals of different channels of pictures taken with 63× magnification were compared. In the medial part of each process, the average fluorescence intensity of both acetylated and tyrosinated α-Tubulin was measured in a square of 5×5 pixel and the ratio of the values was determined. For minor neurites of the same cell, the average of the ratios was calculated in polarized neurons and used for comparison to the ratio of the corresponding axon. For unpolarized neurons, the highest ratio was compared to the average of the ratios of the remaining neurites. To measure microtubule retraction after Nocodazole treatment, fixed and stained neurons were relocated on the Cellocate coverslips. Pictures were taken of both the actin cytoskeleton (visualized by staining with Rhodamine-coupled Phalloidin) and the microtubules (stained with an antibody recognizing α-Tubulin). The actin cytoskeleton outlining the neuron was used as a reference point to measure retraction of microtubules from the distal part of the processes towards the cell body.
To test the resistance of microtubules to depolymerization, we applied the drug Nocodazole to stage 3 neurons, followed by fixation [in 3.7% PFA/Sucrose, 0.25% Glutaraldehyde, 1×PHEM-buffer and 0.1% Triton X-100] after a brief incubation (FIG. 2 A). Nocodazole is known to disrupt microtubules by binding to β-Tubulin and […], thus inhibiting microtubule dynamics. After fixation, neurons were doublestained for F-Actin and α-Tubulin or acetylated and tyrosinated α-Tubulin. Fluorescence microscopy and CCD imaging was used to quantify retraction of microtubules from the distal end of processes or distribution of posttranslational modifications of α-Tubulin after partial depolymerization of the microtubule cytoskeleton.

rat hippocampal neurons [3] = test: Process and axon formation during long term incubation with low drug concentrations; assay type: cell-based; details: for number of processes per cell: read at 3 DIV; for total neurite length: 3 DIV; for number of processes which exceeded 60 μm: 2 further DIV
Method: as §1
For long term incubation, 0.1 to 30 nM Taxol (Sigma), 0.1 to 1 μM cytochalasin D (Sigma) or 3 nM to 10 μM Nocodazole (Sigma) were added to culture medium after 1 day in culture, and cells were further incubated at 36.5° C. Drugs were kept as stock solutions in DMSO at −20° C. (Taxol: 5 mM; Cytochalasin D: 10 mM; Nocodazole: 6.67 mM).
To detect proteins by immunohistochemistry, cells were fixed in 4% para-formaldehyde for 15 min at 37° C. (20 min for Tau-1 stainings), aldehyde groups were quenched in 50 mM ammonium chloride for 10 min, and the cells were then extracted with 0.1% Triton X-100 for 3 min.
Length and intensity measurements were done using Scion Image Beta 4.0.2 for MS Windows (based on NIH-image). For length measurements, cVisTec Professional 1.0 (cVisTec, Munich, Germany) was additionally used.
So far we had shown that axonal microtubules have a higher ability to resist depolymerization under harsh microtubule-destabilizing conditions. If there was a putative stability difference in axons and minor neurites, we hypothesized that particular growth conditions should allow formation of axons but not minor neurites. To assess the effect of modest microtubule destabilization on process formation, we treated hippocampal neurons after 1 DIV with low concentrations of Nocodazole. After 2 further DIV under such growth conditions cells were fixed [with 4% PFA/Sucrose] and stained for the axonal marker Tau-1. Using fluorescence microscopy, we evaluated effects on the formation of axons and minor neurites.
To test the influence of microtubule stabilization on axon formation we treated hippocampal neurons after 1 DIV with low concentrations of the microtubule-stabilizing drug Taxol (FIGS. 4A and H). […] Taxol (also known as Paclitaxel) is successfully used as an anti-cancer drug so far as it arrests dividing cells in the G2-M-phase of cell division. Neurons grown in the presence of low concentrations of Taxol were fixed [with 4% PFA/sucrose] after 3 to 7 DIV and stained for the axonal marker Tau-1 or the dendritic marker MAP2. Under control conditions, neurons had formed one axon and several minor neurites (FIGS. 4D and E). […] The number of processes which exceeded 60 μm had increased more than 2-fold by Taxol treatment (DMSO 1.53±0.05, 3 nM Taxol 2.93±0.46, 10 nM Taxol 3.58±0.54) (FIG. 4F). Similarly, the number of cells with more than one Tau-1-positive process went up about 4-fold in a concentration-dependent manner in Taxol-treated neurons (from 20.19±3.19% in DMSO-treated neurons to 80.81±1.71% neurons treated with 10 nM Taxol) (FIG. 4G).

[4] = tested on: growth cones of lesioned sciatic nerve axons; test: Nocodazole application onto lesioned sciatic nerve (growth cone to bulb conversion); assay type: in vivo, GFP-M mice
Method: The mice were anesthetized as described. The sciatic nerve was exposed at around 2.5 cm from the DRG cell bodies by a small incision and crushed with forceps for ten seconds. The incision was sutured and the skin stapled. The anesthesia was reversed and the animals were transferred to a heating pad for the following 24 hours.
Sciatic nerve lesion was performed as described. After 24 hours animals were re-anesthetized and 10 μl of 330 μM of nocodazole (Sigma-Aldrich, diluted in 5% DMSO in PBS) or 5% DMSO alone was applied onto lesion site with a pipette. The injury site was closed and animals were perfused 24 hours after nocodazole or DMSO application for staining and imaging.
(§2) The size of retraction bulbs and growth cones was quantified as follows: the maximum diameter of the retraction bulb and growth cone at the tip of the axon was measured and divided by the axon diameter of the same end structure where the axon looked normal.

astrocytes = test: Astrocyte numbers in taxol treated cultures; assay type: cell-based
[5] = tested on: lesioned dorsal column (CNS) axons; test: Taxol application immediately after dorsal column lesion: retraction bulb formation, in vivo imaging; set-up: species or system GFP-M mice
Excerpt: (§3) We used an Olympus SZX-12 fluorescent stereomicroscope equipped with 1× Plan Apochromat objective and 1.6× Plan Fluorite objective (Olympus). The ColorView II camera integrated to the microscope was used to capture images through Analysis FIVE software (Soft Imaging System). Animals were anesthetized as described. After removing the laminae at T11/12 level, a small unilateral lesion was applied with the vannas spring scissors (FST) by transecting only the superficial axons of the dorsal columns. We imaged the injury site before and after lesion by acquiring serial images. The animals were kept on a heating pad during the imaging session.
(§4) A small unilateral spinal cord lesion at T12 level was performed as described. 10 μl of 1 μM or 5 μM taxol (Sigma-Aldrich, diluted in Saline) or saline as control was applied onto the lesion site each hour starting immediately after or 24 hours after lesioning. The lesion sites were visualized by in vivo imaging as described. The animals' anesthesia was boosted after 3 hours. At the end of the observation period animals were perfused and prepared for the confocal imaging as described.
as §2
The distance of taxol and saline treated axons to the lesion site was quantified as follows: The lesion site was outlined from the in vivo binocular images. We then measured the distance of the axonal tips to the proximal edge of the lesion.

neurons = details: CNS; cited from earlier work
[6] = tested on: lesioned dorsal column (CNS) axons; test: Taxol application 24 hours after dorsal column lesion: regenerating sprouts; assay type: in vivo, mice
Excerpt: as §3, §4
The length of the sprouts quantified on confocal images. The length of all sprouts including sprouts emerging from sprouts measured and summed up for final value. As number of sprouts, only primary sprouts emerging from directly axonal shaft were quantified.

[7] = 5 μM Nocodazole, brief incubation
[8] = stage 2 neurons (1 DIV), 3.3 μM Nocodazole

For `CCC(=O)O[C@H]1C[C@H]2OC[C@@]2(OC(C)=O)[C@H]2[C@H](OC(=O)c3ccccc3)[C@]3(O)C[C@H](OC(=O)[C@H](O)[C@@H](NC(=O)OC(C)(C)C)c4ccco4)C(C)=C([C@@H](O)C(=O)[C@]12C)C3(C)C` [MAC-321, 5beta, 20-epoxy-1, 2alpha-, 4-, 7beta-, 10beta-, 13alpha-hexahydroxytax-11-en-9-one 4 acetate 2 benzoate 7-propionate 13-ester with (2R,3S)—N-tertbutoxycarbonyl-3-(2-furyl)isoserine], the Lethal dose [1] is given as 140 mg/kg.
In the case of `COC(=O)Nc1nc2ccc(C(=O)c3cccs3)cc2[nH]1` [Nocodazole], the “microtubule retraction of minor neurites” value (rat hippocampal neurons [2]; [7]) is reported as 12.47±2.221 μm, the “retraction of axonal microtubules” value (rat hippocampal neurons [2]; [7]) is reported as 8.89 μm and the “average microtubule retraction of the remaining minor neurites” value (rat hippocampal neurons [2]; [8]) is reported as 13.71±2.84 μm. The “microtubule retraction in the minor neurite with the lowest retraction” value (rat hippocampal neurons [2]; [8]) was 4.50±1.27 μm, the “cells in which microtubule retraction was significantly higher in minor neurites compared to axons” value (rat hippocampal neurons [2]; 3.3 μM Nocodazole) was 59.3±6.9% and the “cells in which microtubule retraction was significantly higher in minor neurites compared to axons” value (rat hippocampal neurons [2]; 5 μM Nocodazole) was 60%±5.1%. The “number of processes per cell” value (rat hippocampal neurons [3]; 15 nM Nocodazole from 1 DIV) was 3.58±0.08, the “increase of total neurite length from day 1 to day 3 in vitro” value (rat hippocampal neurons [3]; 45 nM Nocodazole) was “more than 3 fold” and the “number of processes per cell” value (rat hippocampal neurons [3]; 45 nM Nocodazole from 1 DIV) was 2.64±0.08. The total neurite length (rat hippocampal neurons [3]; 45 nM Nocodazole) was 197.31 μm, the “increase of total neurite length from day 1 to day 3 in vitro” value (rat hippocampal neurons [3]; 75 nM Nocodazole) was over 2 fold and the “number of processes per cell” value (rat hippocampal neurons [3]; 75 nM Nocodazole from 1 DIV) was 2.20±0.18. The total neurite length (rat hippocampal neurons [3]; 75 nM Nocodazole) was 134.89 μm, the “axons that transformed their growth cones into a bulb” value ([4]; 10 μl of 330 μM nocodazole 24 h after sciatic nerve crush, evaluated 24 h after treatment) was 42.3%±13.2% and 45%±13% and the “tip/axon shaft ratio of nocodazole induced retraction bulbs” value ([4]; 10 μl of 330 μM nocodazole, 24 h after treatment) was 4.25±0.56.
With `CC(=O)O[C@H]1C(=O)[C@@]2(C)[C@H]([C@H](OC(=O)c3ccccc3)[C@]3(O)C[C@H](OC(=O)[C@H](O)[C@@H](NC(=O)c4ccccc4)c4ccccc4)C(C)=C1C3(C)C)[C@]1(OC(C)=O)CO[C@@H]1C[C@@H]2O` [Taxol, Tax-11-en-9-one, 5beta,20-epoxy-1,2alpha,4,7beta, 10beta,13alpha-hexahydroxy-, 4,10-diacetate 2-benzoate, 13-ester with (2R,3S)—N-benzoyl-3-phenylisoserine (8Cl)] the astrocyte numbers (astrocytes) was “drastic reduction in astrocyte numbers”, the “microtubule retraction in Taxol-induced axon-like processes” value (rat hippocampal neurons [2]; 10 nM Taxol for 24 h, then 5 μM Nocodazole briefly) was 7.48±1.761 μm and the “tip/axon ratio of retraction bulbs formed during treatment” value ([5]; 1 μM taxol, 5 biggest retraction bulbs per animal, 6 hours) was 2.53±0.54. For the same compound, the “animals with proximal axonal stumps as close as 25 μm to the injury site” value ([5]; 1 μM taxol, 6 hours after injury) was 6 out of 11, the “axons that developed retraction bulbs (tip/axon ratio >2)” value ([5]; 10 μl of 1 μM taxol once per hour from immediately after injury, first 6 hours) was 22.8%±13.1% and the “number of processes which exceeded 60 μm” value (rat hippocampal neurons [3]; 3 nM Taxol from 1 DIV) was 2.93±0.46. For the same compound, the “cells with more than one Tau-1-positive process” value (rat hippocampal neurons [3]; 10 nM Taxol) was 80.81±1.71%, the “number of processes which exceeded 60 μm” value (rat hippocampal neurons [3]; 10 nM Taxol from 1 DIV) was 3.58±0.54 and the “increase of the number of cells with more than one Tau-1-positive process” value (rat hippocampal neurons [3]; 10 nM Taxol versus DMSO) was “about 4 fold”. For the same compound, the “increase of the number of processes which exceeded 60 μm” value (rat hippocampal neurons [3]; Taxol treatment versus DMSO) was “more than 2 fold”, the neuronal death (neurons) was “induces dose-dependent neuronal death” and the “animals in which the extended retraction bulb with filopodia like extensions was observed” value ([6]; 5 μM taxol, 48 h post injury) was 4 out of 12. For the same compound, the “sprout terminals with extended retraction bulb with several filopodia like extensions” value ([6]; 5 μM taxol, 48 h post injury) was 8.9%±5.0%, the “sprout terminals with slim growth cone morphology” value ([6]; 5 μM taxol, 48 h post injury) was 57%±20% and the “sprout terminals with small retraction bulb morphology” value ([6]; 5 μM taxol, 48 h post injury) was 41.8%±16.6%. The “total number of the sprouts from one axon” value ([6]; 10 μl of 5 μM taxol once each hour, 4-5 times, from 24 h post injury, read 48 h post injury) was 7.83±1.79.
